Test results: patent US6626844B1, “Method and composition for inhibition of nitric oxide production in the oral cavity” (Aerocrine AB, priority 1998, dated 2003)

How the values were obtained:
[1] = test system: NO in exhaled air; assay: Mouthwashes and NO in exhaled air; format: in vivo, humans
Excerpt: (§1) Ten healthy non-smoking subjects, age 23-43, were included in the study. The NO measurements were made with a chemiluminescense technique according to the recommendations recently described in the ERS Task Force Report (Kharitonov et al., 1997). The values of NO concentration were then registered in a computer software program together with the values of flow and pressure, measured with a pneunotachygraf, and calculations of these parameters were presented on a screen.
The following describes briefly the “single-breath” method for orally exhaled air. Compressed NO free air was continuously flowing into a non-diffusing gas collection bag, 100 l capacity (Hans Rudolph Inc.), at a rate of 2-3 l/min. The bag was connected via a tube to a Y-piece with a one-way valve, which in turn was adapted to a mouthpiece. Before the measurements the subjects inhaled NO free air through the mouthpiece and were asked to hold their breath for 10 s while they put their tongue into the mouthpiece's opening, in order to prevent NO from diffusing out. Then the subjects exhaled through the mouthpiece at a flow rate of about 0.15 l/s against a resistance of 50 cmH2O/l/s (Hans Rudolph Inc.), giving rise to an oral pressure of 8-10 cmH2O, for a period of 20 s. The exhaled air went out through the other one-way valve in the Y-piece leading on to a linear pneumotachymeter (Hans Rudolph Inc.), where the values of flow and pressure were registered and transformed into digital signals recorded by a computer software program (Medical Breath Analyser™ from Aerocrine AB, Sweden). The recordings were instantly visualized on a computer screen, which enabled the subjects to maintain a certain flow (i.e. 0.15 l/s), adjusting the exhalation to the flow curve. A fraction of the exhaled air was aspirated into the NO analyzer (Eco Physics Inc., Model CLD 700 AL) at a flow rate of approximately 0.5 l/min, through a 110-cm narrow-bore and Teflon®-coated tube connected to the mouthpiece. The detected NO levels were passed on to the computer and integrated with the figures for flow and pressure for calculation of NO release rate (pmol/s) and NO amount (pmol). NO release was calculated by the formula: NO-conc×Q=pmol/s×l/s=pmol/s. The conversion of NO-conc in ppb to a molecular unit goes via the fact that the volume of 1 mol of NO takes up 24.445 liters at normal temperature and pressure. Given this 1 ppb NO equals 40.908 pM. At the flow of 0.15 l/s and e.g. a NO-conc of 10 ppb the NO release equals 67 pmol/s. The use of NO-release, instead of NO-concentration as a registration unit, has the advantage of taking the flow rate into account, whereas in the use of NO-concentration the exhalation flow is not taken into consideration. In addition to the curves for flow and pressure two curves for NO concentration and NO release were plotted on the screen and calculated mean values were presented for the last 40% of the breath, representing the plateau phase. NO amount was also presented for the first 40%, representing the area under curve for the peak.
In order to further manipulate with the conditions in the oral cavity and perhaps influence the formation of NO from salivary nitrite different mouthwashes were introduced in the study. On a separate day, from that of the nitrate load, the ten subjects volunteered to have their NO in exhaled air measured after rinsing their mouth with distilled water, sodium bicarbonate-, ascorbic acid- and, nitrite solutions in named order. Further, a mouthwash with Chlorhexidine acetate 0.2% was included in the study.
In the first series of mouthwashes 5 baseline measurements with a breathhold were performed to obtain a reference value. In fact, all measurements in this part of the experiment were done with a breathhold, for the reasons described above. […]

[2] = test system: exhaled NO output; assay: Mouthwash trials: NO output in exhaled air; format: in vivo, humans; settings: for effect on NO output: 30 s mouthwash with 25 ml
Experimental: Experimental protocol: Exhaled NO was measured at an exhalation flow rate of 100 ml/s and the NO output was calculated. Measurements were repeated 3 times at each time point and the median value was used. After baseline measurements, the test subjects (n=3) were asked to rinse their mouth with 25 ml of different solutions during 30 s whereafter the solution was spat out All solutions were made up in distilled water. Exhaled NO measurements were repeated directly after, and 5, 15 and 30 min after the mouthwash procedure. Results are given as mean relative changes in NO output compared to baseline measurements.

[3] = test system: NO in exhaled air; assay: Mouthwash after nitrate loading, NO in exhaled air; format: in vivo, humans
Experimental: The experiment was terminated with a mouthwash of sodium bicarbonate after 180 min with a following single-breath measurements. This to examine whether the mouthwash's possible reduction of the NO formation would be enhanced at a stage when one would expect high levels of NO. For mouthwash procedure see below.
In addition to the mouthwash with sodium bicarbonate after […], the effects of chlorhexidine was studied at a stage when one could expect larger amounts of nitrite in the saliva. This was also done in a separate experiment, on a separate day, not to interfere with the results of the original nitrate loading study. Five single-breaths with a breathhold were carried out to obtain a reliable baseline. Thereafter a load of 400 mg potassium nitrate was ingested, as described above. However, to facilitate this experiment for the subjects there was no demand for fasting. Five additional single-breaths were performed 90 min later—to get representative mean values of NO after nitrate ingestion. The subjects then rinsed their mouths with 2.5 cl chlorhexidine acetate 0.2% for 30 s and performed a NO measurement immediately afterwards. The single-breath procedure was also repeated 2, 5, 10, 20 and 30 min after the mouthwash.

[4] = test system: NO in exhaled air; assay: Nitrate loading: NO in orally exhaled air, single-breath chemiluminescence; format: in vivo, humans
Excerpt: as §1
The following describes briefly the “single-breath” method for orally exhaled air. Compressed NO free air was continuously flowing into a non-diffusing gas collection bag, 100 l capacity (Hans Rudolph Inc.), at a rate of 2-3 l/min. The bag was connected via a tube to a Y-piece with a one-way valve, which in turn was adapted to a mouthpiece. Before the measurements the subjects inhaled NO free air through the mouthpiece and were asked to hold their breath for 10 s while they put their tongue into the mouthpiece's opening, in order to prevent NO from diffusing out. Then the subjects exhaled through the mouthpiece at a flow rate of about 0.15 l/s against a resistance of 50 cmH2O/l/s (Hans Rudolph Inc.), giving rise to an oral pressure of 8-10 cmH2O, for a period of 20 s. The exhaled air went out through the other one-way valve in the Y-piece leading on to a linear pneumotachymeter (Hans Rudolph Inc.), where the values of flow and pressure were registered and transformed into digital signals recorded by a computer software program (Medical Breath Analyser™ from Aerocrine AB, Sweden). The recordings were instantly visualized on a computer screen, which enabled the subjects to maintain a certain flow (i.e. 0.15 l/s), adjusting the exhalation to the flow curve. A fraction of the exhaled air was aspirated into the NO analyzer (Eco Physics Inc., Model CLD 700 AL) at a flow rate of approximately 0.5 l/min, through a 110-cm narrow-bore and Teflon®-coated tube connected to the mouthpiece. The detected NO levels were passed on to the computer and integrated with the figures for flow and pressure for calculation of NO release rate (pmol/s) and NO amount (pmol). NO release was calculated by the formula: NO-conc×Q=pmol/s×l/s=pmol/s. The conversion of NO-conc in ppb to a molecular unit goes via the fact that the volume of 1 mol of NO takes up 24.445 liters at normal temperature and pressure. Given this 1 ppb NO equals 40.908 pM. At the flow of 0.15 l/s and e.g. a NO-conc of 10 ppb the NO release equals 67 pmol/s. The use of NO-release, instead of NO-concentration as a registration unit, has the advantage of taking the flow rate into account, whereas in the use of NO-concentration the exhalation flow is not taken into consideration. In addition to the curves for flow and pressure two curves for NO concentration and NO release were plotted on the screen and calculated mean values were presented for the last 40% of the breath, representing the plateau phase. NO amount was also presented for the first 40%, representing the area under curve for the peak. […]
Changes in NO levels were analysed by using non-parametric ANOVA for paired and repeated measures with subsequent Dunn's post-test as offered by InStat from GraphPad Software. Nitrate and nitrite concentrations in the saliva were analysed by the non-parametric method of […] for paired measurements, using the same software. […]

[5] = test system: nasal NO; assay: Nasal NO after nitrate loading; format: in vivo, humans; settings: 5-180 min after nitrate loading
Excerpt: To look into nasal NO levels a somewhat new approach taking advantage of the set-up for measurements in exhaled air was used. A “nose-olive”, tried out individually for a tight fitting to the subject's nostrils, was attached to the Teflon®-coated tube leading in to the NO-analyzer. The olive was then placed in one of the nostrils letting the NO analyzer aspirate air from the nasal cavity. Even though the subjects kept breathing through their mouth the NO concentrations oscillated with every breath, pointing to a leakage of NO from the nose to the oral cavity. The subjects were asked to take a deep breath and exhale through the mouthpiece against the same resistance as above, while the olive still was sampling from the nose. The oscillations of the NO values then ceased and the concentrations increased to a stable plateau, visualized on the computer screen. The time for exhalation was set to 20 s. which was well sufficient to reach a plateau. A mean value of the NO concentration during the last 40% of the exhalation, i.e. 8 s. was presented by the computer program and included in the protocol. […]
An amount of 400 mg potassium nitrate was dissolved in a cup of distilled water and then swallowed down. […] NO in exhaled air was measured first without and then with a breathhold, as mentioned above.

[6] = test system: NO synthesis in the oral cavity; settings: prior treatment with mouthwash, healthy volunteers; cited from earlier work
[7] = test system: NO formation from saliva
Experimental: On another occasion the subjects were asked to produce 10 ml of saliva, without time restriction, by again chewing on a piece of Teflon®-plastic. Half of this, i.e. 5 ml, was put in a 50 ml plastic syringe with an addition of 0.5 ml distilled water and closed with a three-way stopcock after filling it up with 50 ml of room air. The remaining 5 ml were mixed with 0.5 ml 20 mM nitrite solution (resulting in a salivary nitrite concentration of a […]) and put in another syringe filled with 50 ml of room air. The two syringes were put in a warming cupboard with an approximate temperature of 40° C. for 15 min. The air head space from both syringes was then collected in two separate empty 50 ml syringes and it's NO concentration was determined by the NO chemiluminescence analyser.

[8] = immediately after 30 s mouthwash (3 cl), with breathhold, baseline 41.1±3.3, n=10
[9] = immediately after 30 s mouthwash, baseline 497.6±52.7
[10] = 0 min after 30 s mouthwash with 25 ml, n=3
[11] = 120 min after nitrate ingestion, after breathhold

## O=C([O-])O.[Na+] [sodium bicarbonate]
[1]; 120 s after 30 s mouthwash
  plateau NO release: 34.4 ± 3.6 pmol/s
[1]; [8]
  plateau NO release: 31.3 ± 3.1 pmol/s
[1]; [9]
  peak level of NO: 309.2±43.0 ppb
[2]; [10]
  mean relative change in NO output compared to baseline: −7% at
[2]; 5 min after mouthwash
  mean relative change in NO output compared to baseline: −5% at
[2]; 15 min after mouthwash
  mean relative change in NO output compared to baseline: −8% at
[2]; 30 min after mouthwash
  mean relative change in NO output compared to baseline: −8% at
[3]; mouthwash 180 min after nitrate load
  reduction of plateau: more than 30%
[3]; mouthwash 180 min after nitrate load, before mouthwash 52.7±4.8
  plateau NO release: 36.2 ± 4.2 pmol/s

## OO [1% H2O2, hydrogen peroxide]
[2]
  effect on NO output: increased NO output

## CC(=O)O.CC(=O)O.NC(=N\CCCCCC/N=C(N)/N=C(\N)Nc1ccc(Cl)cc1)/N=C(\N)Nc1ccc(Cl)cc1 [chlorhexidine acetate]
[1]; 0.2% mouthwash, control (fasting) situation
  immediate decrease of NO compared to baseline: ~30%
[1]; immediately after 30 s mouthwash with 2.5 cl 0.2%, pH 8.0, separate day, baseline 33.9±2.9
  NO release: 24.1 ± 3.5 pmol/s
[2]; [10]
  mean relative change in NO output compared to baseline: −14% at
[2]; 5 min after mouthwash
  mean relative change in NO output compared to baseline: −11% at
[2]; 15 min after mouthwash
  mean relative change in NO output compared to baseline: −5% at
[2]; 30 min after mouthwash
  mean relative change in NO output compared to baseline: −10% at
[3]; immediately after 0.2% mouthwash (2.5 cl, 30 s) given 90 min after nitrate load, before mouthwash 60.8±6.4
  NO release: 33.9 ± 4.3 pmol/s
[3]; mouthwash 90 min after nitrate load
  immediate reduction of NO levels: ~50%

## O=[N+]([O-])[O-].[K+] [potassium nitrate]
[4]; 120 min after ingestion of 400 mg potassium nitrate, without breathhold, baseline 31.2±3.0, mean±SEM n=10
  NO release during the plateau: 77.0 ± 15.2 pmol/s
[4]; [11]
  increase of peak NO amount compared to baseline: 130%
  peak level: total amount NO released during the first 40% of the exhalation: 819 ± 160.8 pmol
[4]; 120 min after nitrate ingestion, with breathhold, baseline 31.9±4.5
  NO release during the plateau: 70.8 ± 11.6 pmol/s
[4]; 120 min after nitrate ingestion, without breathhold
  increase of plateau NO release compared to baseline: ~150%
[5]
  changes in nasal NO production: no significant changes in NO production
[3]; 90 min after 400 mg potassium nitrate, not fasting, control 34.8±4.2
  NO release: 60.8 ± 6.4 pmol/s
[3]; 90 min after nitrate load
  increase of NO release compared to control levels: ~2 fold

## O=C1O[C@H]([C@@H](O)CO)C(O)=C1O [ascorbic acid]
[6]
  effect on NO production: marked elevation in NO production
[1]; [8]
  plateau NO release: 155.0 ± 27.6 pmol/s
[1]; [9]
  peak level of NO: 2482.5±601.9 ppb
[1]; immediately after mouthwash
  increase of peak concentration: around 400%
  increase of plateau level compared to baseline: ~300%

## polyoxyethylene sorbitan monolaurate [1% Tween-20 ®]
[2]; [10]
  mean relative change in NO output compared to baseline: −9% at
[2]; 5 min after mouthwash
  mean relative change in NO output compared to baseline: −6% at

## O=N[O-].[K+] [nitrite solution, potassium nitrite]
[1]; 0.1 M nitrite solution
  increase of plateau NO release compared to baseline: > 40 fold
[1]; 60 s after 30 s mouthwash
  peak level of NO: 2812.1±622.1 ppb
  plateau NO release: 225.2 ± 44.0 pmol/s
[1]; dose-response rinse, 1 mM nitrite solution, one single-breath after rinsing
  plateau NO release: 55.0 ± 8.7 pmol/s
[1]; dose-response rinse, 0.1 M nitrite solution
  plateau NO release: 1791.8 ± 404.8 pmol/s
[7]; 5 ml saliva + 0.5 ml 20 mM nitrite, about 40° C., 15 min, pure saliva 59.5±29.8
  NO concentration in head space of incubated saliva: 396.4±138.2 ppb
[7]; nitrite added to saliva
  increase of NO formation versus pure saliva: more than 500%

## O=S(=O)([O-])[O-].[Fe+2] [100 mg FeSO4]
[2]
  effect on NO output: increased NO output
